Measured values published in patent publication US8822495B2, “Azacyclyl-substituted aryldihydroisoquinolinones, process for their preparation and their use as medicaments” (Sanofi, priority 2006, dated 2014).

target: T1, human MCH receptor (Homo sapiens, UniProt Q99705); test: functional IC50 of MCH1R antagonists: cellular calcium flux (FLIPR), called calcium immobilization assay; type: cell-based; conditions: calcium flux after addition of agonist (MCH), recombinant HEK293 cell line expressing the human MCH receptor
T1 construct: expressed in transfected cells
Description: Influence on the MCH receptor in vitro; determination of functional IC50 values of MCH1R antagonists
Cloning of the cDNA for the human MCH receptor, preparation of a recombinant HEK293 cell line which expresses the human MCH receptor, and functional measurements with the recombinant cell line took place in analogy to the description by Audinot et al. (J. Biol. Chem. 276, 13554-13562, 2001). A difference from the reference was, however, the use of the plasmid pEAK8 from EDGE Biosystems (USA) for the construction of the expression vector. The host used for the transfection was a transformed HEK cell line named “PEAK Stable Cells” (likewise from EDGE Biosystems). Functional measurements of the cellular calcium flux after addition of agonist (MCH) in the presence of ligand of the invention took place with the aid of the FLIPR apparatus from Molecular Devices (USA), using protocols of the apparatus manufacturer. The compounds of the invention show a significant inhibition (>30%) of the signal induced by the agonist at a concentration of 100 μM, preferably at 10 μM, particularly preferably at 1 μM, very particularly preferably at 100 nM and even more particularly preferably at 10 nM.

T1 sequence (Q99705 whole entry): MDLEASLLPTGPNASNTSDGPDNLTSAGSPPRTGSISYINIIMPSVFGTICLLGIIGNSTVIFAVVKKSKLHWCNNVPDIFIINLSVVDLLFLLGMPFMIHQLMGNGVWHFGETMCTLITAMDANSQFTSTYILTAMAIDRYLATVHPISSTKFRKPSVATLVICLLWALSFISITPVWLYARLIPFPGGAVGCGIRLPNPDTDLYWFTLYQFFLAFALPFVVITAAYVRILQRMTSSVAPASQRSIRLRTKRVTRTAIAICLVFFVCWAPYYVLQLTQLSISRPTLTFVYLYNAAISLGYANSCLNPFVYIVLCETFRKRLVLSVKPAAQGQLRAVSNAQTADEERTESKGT

| SMILES | IC50 [nM] |
| --- | --- |
| CN(C)[C@@H]1CCN(c2ccc(N3CCc4cc(OC5CCC(O)C5)ccc4C3=O)cc2F)C1 (stereo partly drawn) [Example 219] | 1460 |
| C[C@@H](O)C#Cc1ccc2c(=O)n(-c3ccc(N4CC[C@@H](N5CCCC5)C4)c(F)c3)ccc2c1 [Example 136] | 100 |
| CC(O)CCNc1ccc2c(c1)CCN(c1ccc(N3CC[C@@H](N(C)C)C3)c(F)c1)C2=O (stereo partly drawn) [Example 106] | 4210 |
| CC1=C(C)C(=O)N(c2ccc3c(c2)CCN(c2ccc(N4CC[C@@H](N(C)C)C4)c(F)c2)C3=O)C1 [Example 112] | 7540 |
| CN[C@@H]1CCN(c2ccc(N3CCc4cc(OC5CC(C)OC5=O)ccc4C3=O)cc2F)C1 (stereo partly drawn) [Example 84] | 6240 |
| CC(C)(O)CN1CC[C@]2(CCN(c3ccc(N4CCc5cc(OC[C@@H]6CCCO6)ccc5C4=O)cc3)C2)C1 [Example 206] | 200 |
| CC(C)C(=O)Nc1ccc2c(c1)CCN(c1ccc(N3CC[C@@H](N(C)C)C3)c(F)c1)C2=O [Example 95] | 3410 |
| CN(C)[C@@H]1CCN(c2ccc(N3CCc4cc(N5C[C@H]6CCCN6C5=O)ccc4C3=O)cc2F)C1 [Example 99] | 1680 |
| O=C1CCCN1CCOc1ccc2c(=O)n(-c3ccc(N4CC[C@@H](N5CCCC5)C4)c(F)c3)ccc2c1 [Example 246] | 13000 |
| CN(C)[C@@H]1CCN(c2ccc(N3CCc4cc(OCC5(C)COC5)ccc4C3=O)cc2F)C1 [Example 224] | 1420 |
| CCCCOc1ccc2c(c1)CCN(c1ccc(N3CCC(NCCCN4CCCC4=O)C3)cc1)C2=O (stereo not drawn) [Example 45] | 220 |
| CCCCOc1ccc2c(c1)CCN(c1ccc(N3CCC(N4CCN(C(C)=O)CC4)C3)cc1)C2=O (stereo not drawn) [Example 39, 2-{4-[3-(4-Acetylpiperazin-1-yl)pyrrolidin-1-yl]phenyl}-6-butoxy-3,4-dihydro-2H-isoquinolin-1-one] | 230 |
| CN(C)[C@@H]1CCN(c2ccc(N3CCc4cc(C#CC(C)(C)O)sc4C3=O)cc2)C1 [Example 361] | 2560 |
| CC[C@H](O)COc1ccc2c(c1)CCN(c1ccc(N3CC[C@]4(CCN(CCCF)C4)C3)cc1)C2=O [Example 176] | 310 |
| CCCCOc1ccc2c(c1)CCN(c1ccc(N3CCC(N(C)C)C3)c(Cl)c1)C2=O (stereo not drawn) [Example 1, 6-Butoxy-2-[3-chloro-4-(3-dimethylaminopyrrolidin-1-yl)phenyl]-3,4-dihydro-2H-isoquinolin-1-one] | 990 |
| CC[C@H](O)COc1ccc2c(c1)CCN(c1ccc(N3CCC4CN(C)CC43)cc1)C2=O (stereo partly drawn) [Example 287] | 1960 |
| CCCCOc1ccc2c(c1)CCN(c1ccc(N3CC[C@@H](N(C)CCS(C)(=O)=O)C3)c(F)c1)C2=O [Example 14, 6-Butoxy-2-(3-fluoro-4-{(R)-3-[(2-methanesulfonylethyl)methylamino]pyrrolidin-1-yl}phenyl)-3,4-dihydro-2H-isoquinolin-1-one] | 1070 |
| CC1CCN(c2ccc3c(c2)CCN(c2ccc(N4CC[C@@H](N(C)C)C4)c(F)c2)C3=O)CC1 [Example 24, 2-[4-((R)-3-Dimethylaminopyrrolidin-1-yl)-3-fluorophenyl]-6-(4-methylpiperidin-1-yl)-3,4-dihydro-2H-isoquinolin-1-one] | 1190 |
| O=C1c2ccc(OC[C@@H]3CCCO3)cc2CCN1c1ccc(N2CCC(N3CC4CCC4C3)C2)c(F)c1 (stereo partly drawn) [Example 264] | 590 |
| O=c1c2ccc(OCC(O)C(F)(F)F)cc2ccn1-c1ccc(N2CC[C@@H](N3CCCC3)C2)c(F)c1 (stereo partly drawn) [Example 154] | 180 |
| CC1(O)CCCC1Oc1ccc2c(=O)n(-c3ccc(N4CC[C@@H](N5CCCC5)C4)c(F)c3)ccc2c1 (stereo partly drawn) [Example 168] | 1390 |
| O=c1c2ccc(OCCCF)cc2ccn1-c1ccc(N2CC[C@]3(CCN(CCCF)C3)C2)cc1 [Example 210] | 360 |

Continued, values first:

| IC50 [nM] | SMILES |
| --- | --- |
| 150 | CC1(O)CCN(C2CCN(c3ccc(-n4ccc5cc(OC[C@H]6CCCO6)ccc5c4=O)cc3F)C2)CC1 (stereo partly drawn) [Example 321] |
| 1600 | O=c1c2ccc(OC[C@H]3CCCO3)cc2ccn1-c1ccc(N2CCC3(CNCCO3)C2)c(F)c1 (stereo partly drawn) [Example 341] |
| 500 | CC1CCOC1COc1ccc2c(=O)n(-c3ccc(N4CC[C@@H](N5CCCC5)C4)c(F)c3)ccc2c1 (stereo partly drawn) [Example 202] |
| 1140 | CN(C)C1(C)CCN(c2ccc(-n3ccc4cc(OC[C@H]5CCCO5)ccc4c3=O)cc2F)C1 (stereo partly drawn) [Example 356, 2-[4-(3-Dimethylamino-3-methyl-pyrrolidin-1-yl)-3-fluorophenyl]-6-[(R)-1-(tetrahydrofuran-2-yl)methoxy]-2H-isoquinolin-1-one] |
| 410 | CC(O)CCOc1ccc2c(=O)n(-c3ccc(N4CC[C@@H](N5CCCC5)C4)c(F)c3)ccc2c1 (stereo partly drawn) [Example 251] |
| 23800 | CO[C@@H]1CN(c2ccc(-n3ccc4cc(OC[C@H]5CCCO5)ccc4c3=O)cc2F)C[C@H]1N(C)C (relative stereo) [Example 353, 2-[4-((3R*,4R*)-3-Dimethylamino-4-methoxy-pyrrolidin-1-yl)-3-fluorophenyl]-6-[(R)-1-(tetrahydrofuran-2-yl)methoxy]-2H-isoquinolin-1-one] |
| 220 | COc1cc(-n2ccc3cc(OC[C@@H]4CCCO4)ccc3c2=O)ccc1N1CCCN(C)CC1 [Example 326] |
| 380 | COCCCNC1CCN(c2ccc(-n3ccc4cc(OC[C@H]5CCCO5)ccc4c3=O)cc2F)C1 (stereo partly drawn) [Example 303] |
| 220 | CN1CC2(CCN(c3ccc(-n4ccc5cc(OC[C@H]6CCCO6)ccc5c4=O)cc3F)C2)C1 [Example 354] |
| 200 | CN1C[C@H]2CCN(c3ccc(-n4ccc5cc(OC[C@@H]6CCCO6)ccc5c4=O)cc3)[C@H]2C1 [Example 324] |
| 3690 | CC(=O)N(C)C1CCCN(c2ccc(-n3ccc4cc(OC[C@@H]5CCCO5)ccc4c3=O)cc2)C1 (stereo partly drawn) [Example 327] |
